The assay concerns the target T1, human TLR8 (Homo sapiens, UniProt Q9NR97).
T1 construct: host or cells: HEK293 (HEK-Blue hTLR8)
T1 sequence (Q9NR97 27-1041): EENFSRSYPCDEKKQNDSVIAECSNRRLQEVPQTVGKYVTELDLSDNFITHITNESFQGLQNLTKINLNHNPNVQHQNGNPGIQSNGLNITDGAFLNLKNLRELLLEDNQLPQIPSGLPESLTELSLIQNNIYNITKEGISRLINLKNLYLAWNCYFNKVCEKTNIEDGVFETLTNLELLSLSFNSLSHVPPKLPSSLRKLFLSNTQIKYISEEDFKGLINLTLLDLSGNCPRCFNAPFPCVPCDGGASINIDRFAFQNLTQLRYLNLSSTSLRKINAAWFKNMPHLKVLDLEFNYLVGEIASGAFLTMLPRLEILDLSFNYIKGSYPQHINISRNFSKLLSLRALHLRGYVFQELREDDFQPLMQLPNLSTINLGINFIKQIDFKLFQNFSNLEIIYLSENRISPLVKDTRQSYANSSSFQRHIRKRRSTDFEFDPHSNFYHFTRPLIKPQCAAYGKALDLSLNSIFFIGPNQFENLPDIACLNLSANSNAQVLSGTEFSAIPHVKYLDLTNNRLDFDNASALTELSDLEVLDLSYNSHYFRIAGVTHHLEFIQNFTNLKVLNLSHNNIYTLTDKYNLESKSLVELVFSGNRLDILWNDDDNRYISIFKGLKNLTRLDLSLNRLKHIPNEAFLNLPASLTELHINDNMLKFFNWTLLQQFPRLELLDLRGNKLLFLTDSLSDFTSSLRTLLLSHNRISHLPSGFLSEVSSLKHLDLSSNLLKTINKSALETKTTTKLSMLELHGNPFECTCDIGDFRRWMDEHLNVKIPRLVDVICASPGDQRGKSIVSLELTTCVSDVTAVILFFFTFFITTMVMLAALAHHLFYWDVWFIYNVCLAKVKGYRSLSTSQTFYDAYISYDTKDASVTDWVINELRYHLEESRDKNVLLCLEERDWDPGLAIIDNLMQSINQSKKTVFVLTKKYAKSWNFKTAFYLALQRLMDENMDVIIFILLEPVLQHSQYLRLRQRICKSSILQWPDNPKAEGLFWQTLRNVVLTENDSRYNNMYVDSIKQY
The assay can be described thus: HEK293-Blue-hTLR-8 cells assay (SEAP reporter, R848 stimulation). It is filed as cell-based. The conditions noted are these: HEK293-Blue-hTLR8 cells, R848, 20 hrs; read-out: HEK/hTLR8 IC50. The procedure, abridged:
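HEK293-Blue-hTLR8 cells (NF-κB/AP-1-driven SEAP) incubated 20 h at 37° C with serially diluted compound (1% DMSO) plus R848 stimulation. Supernatant SEAP measured with QUANTI-Blue, 2 h at 37° C, absorbance 620–655 nm.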
Turning to `C[C@@H]1CN(c2ccc(C#N)c3ncccc23)C[C@H](CN2CCN(c3ccnc(N4C[C@@H](N)[C@H](F)C4)n3)CC2)O1` [Example 96, 5-[(2S,6R)-2-[[4-[2-[(3R,4R)-3-amino-4-fluoro-pyrrolidin-1-yl]pyrimidin-4-yl]piperazin-1-yl]methyl]-6-methyl-morpholin-4-yl]quinoline-8-carbonitrile], the IC50 amounted to 4 nM.
As for `CO[C@@H]1CN(c2ccc(N3CCN(C[C@H]4CN(c5ccc(C#N)n6ncc(F)c56)C[C@@H](C)O4)CC3)cn2)C[C@H]1N` [Example 166, 4-[(2S,6R)-2-[[4-[6-[(3R,4R)-3-amino-4-methoxy-pyrrolidin-1-yl]-3-pyridyl]piperazin-1-yl]methyl]-6-methyl-morpholin-4-yl]-3-fluoro-pyrazolo[1,5-a]pyridine-7-carbonitrile], the figure is 31 nM; as for `[2H]c1nc2c(C#N)ccc(N3C[C@H](CN4CCN(c5nc(C)cc(N6CC(N)C6)n5)CC4)O[C@H](C)C3)c2nc1[2H]` [Example 124, 8-[(2S,6R)-2-[[4-[4-(3-aminoazetidin-1-yl)-6-methyl-pyrimidin-2-yl]piperazin-1-yl]methyl]-6-methyl-morpholin-4-yl]-2,3-dideuterio-quinoxaline-5-carbonitrile], 1 nM; as for `[2H]c1ccc2c(N3C[C@H](CN4CC(c5ccc(N6CC(C)(N)C6)nc5)C4)O[C@H](C)C3)ccc(C#N)c2n1` [Example 138, 5-[(2S,6R)-2-[[3-[6-(3-amino-3-methyl-azetidin-1-yl)-3-pyridyl]azetidin-1-yl]methyl]-6-methyl-morpholin-4-yl]-2-deuterio-quinoline-8-carbonitrile], 19 nM.
As for `CO[C@H]1CN(c2cc(C)nc(N3CCN(C[C@H]4CN(c5ccc(C#N)c6nccnc56)C[C@@H](C)O4)CC3)n2)C[C@@H]1N` [Example 104, 8-[(2S,6R)-2-[[4-[4-[(3S,4S)-3-amino-4-methoxy-pyrrolidin-1-yl]-6-methyl-pyrimidin-2-yl]piperazin-1-yl]methyl]-6-methyl-morpholin-4-yl]quinoxaline-5-carbonitrile], the figure is 1 nM.
Regarding `C[C@@H]1CN(c2ccc(C#N)c3ncccc23)C[C@H](CN2CC(c3ccc(N4CCNCC4)cc3)C2)O1` [Example 3, 5-[(2R,6S)-2-methyl-6-[[3-(4-piperazin-1-ylphenyl)azetidin-1-yl]methyl]morpholin-4-yl]quinoline-8-carbonitrile], the IC50 came to 9 nM.
Regarding `COc1cc(N2CCN(C[C@H]3CN(c4ccc(C#N)c5ncccc45)C[C@@H](C)O3)CC2)nc(N2CCNCC2)n1` [Example 91, 5-[(2S,6R)-2-[[4-(6-methoxy-2-piperazin-1-yl-pyrimidin-4-yl)piperazin-1-yl]methyl]-6-methyl-morpholin-4-yl]quinoline-8-carbonitrile], the IC50 came to 8 nM.
As for `[2H]c1ccc2c(N3C[C@H](CN4CCN(c5ccc(N[C@H]6CNC[C@H]6F)nc5)CC4)O[C@H](C)C3)ccc(C#N)c2n1` [Example 162, 2-deuterio-5-[(2S,6R)-2-[[4-[6-[[(3S,4R)-4-fluoropyrrolidin-3-yl]amino]-3-pyridyl]piperazin-1-yl]methyl]-6-methyl-morpholin-4-yl]quinoline-8-carbonitrile], the figure is 11 nM; as for `CO[C@@H]1CN(c2cc(C)nc(N3CCN(C[C@H]4CN(c5ccc(C#N)c6nccnc56)C[C@@H](C)O4)CC3)n2)C[C@H]1N` [Example 121, 8-[(2S,6R)-2-[[4-[4-[(3R,4R)-3-amino-4-methoxy-pyrrolidin-1-yl]-6-methyl-pyrimidin-2-yl]piperazin-1-yl]methyl]-6-methyl-morpholin-4-yl]quinoxaline-5-carbonitrile], 1 nM.
The value for `CO[C@H]1CN(c2nc(C)cc(N3CCN(C[C@H]4CN(c5ccc(C#N)c6nccnc56)C[C@@H](C)O4)CC3)n2)C[C@@H]1N` [Example 106, 8-[(2S,6R)-2-[[4-[2-[(3S,4S)-3-amino-4-methoxy-pyrrolidin-1-yl]-6-methyl-pyrimidin-4-yl]piperazin-1-yl]methyl]-6-methyl-morpholin-4-yl]quinoxaline-5-carbonitrile] was 1 nM; that for `C[C@@H]1CN(c2ccc(C#N)c3ncccc23)C[C@H](CN2CCN(c3ccnc(N4C[C@@H](N)[C@@H](F)C4)n3)CC2)O1` [Example 101, 5-[(2S,6R)-2-[[4-[2-[(3R,4S)-3-amino-4-fluoro-pyrrolidin-1-yl]pyrimidin-4-yl]piperazin-1-yl]methyl]-6-methyl-morpholin-4-yl]quinoline-8-carbonitrile] was 4 nM.
The value for `Cc1ccc(N2C[C@H](CN3CCN(c4ccnc(N5CCN[C@@H](C)C5)n4)CC3)O[C@H](C)C2)c2nccnc12` [Example 127, (2R,6S)-2-methyl-6-[[4-[2-[(3S)-3-methylpiperazin-1-yl]pyrimidin-4-yl]piperazin-1-yl]methyl]-4-(8-methylquinoxalin-5-yl)morpholine] was 9 nM; that for `C[C@@H]1CN(c2ccc(C#N)c3nccnc23)C[C@H](CN2CCN(c3ccnc(N4C[C@@H](N)[C@@H](F)C4)n3)CC2)O1` [Example 108, 8-[(2S,6R)-2-[[4-[2-[(3R,4S)-3-amino-4-fluoro-pyrrolidin-1-yl]pyrimidin-4-yl]piperazin-1-yl]methyl]-6-methyl-morpholin-4-yl]quinoxaline-5-carbonitrile] was 1 nM.
Consider `Cc1ccc(N2C[C@H](CN3CCN(c4ccnc(N5C[C@H]6NCCO[C@@H]6C5)n4)CC3)O[C@H](C)C2)c2nccnc12` [Example 129, (4aR,7aR)-6-[4-[4-[[(2S,6R)-6-methyl-4-(8-methylquinoxalin-5-yl)morpholin-2-yl]methyl]piperazin-1-yl]pyrimidin-2-yl]-3,4,4a,5,7,7a-hexahydro-2H-pyrrolo[3,4-b][1,4]oxazine], for which the IC50 is 7 nM.
As for `[2H]c1ccc2c(N3C[C@H](CN4CCN(c5ccc(N6CC(C)(N)C6)nc5)CC4)O[C@H](C)C3)ccc(C#N)c2n1` [Example 132, 5-[(2S,6R)-2-[[4-[6-(3-amino-3-methyl-azetidin-1-yl)-3-pyridyl]piperazin-1-yl]methyl]-6-methyl-morpholin-4-yl]-2-deuterio-quinoline-8-carbonitrile], the figure is 16 nM.
As for `C[C@@H]1CN(c2ccc(C#N)n3ncc(F)c23)C[C@H](CN2CCN(c3ccc(N4CC(C)(N)C4)nc3)CC2)O1` [Example 154, 4-[(2S,6R)-2-[[4-[6-(3-amino-3-methyl-azetidin-1-yl)-3-pyridyl]piperazin-1-yl]methyl]-6-methyl-morpholin-4-yl]-3-fluoro-pyrazolo[1,5-a]pyridine-7-carbonitrile], the figure is 50 nM; as for `C[C@@H]1CN(c2ccc(C#N)c3nccnc23)C[C@H](CN2CCN(c3nccc(N4C[C@@H](N)[C@H](F)C4)n3)CC2)O1` [Example 119, 8-[(2S,6R)-2-[[4-[4-[(3R,4R)-3-amino-4-fluoro-pyrrolidin-1-yl]pyrimidin-2-yl]piperazin-1-yl]methyl]-6-methyl-morpholin-4-yl]quinoxaline-5-carbonitrile], 1 nM; as for `[2H]c1ccc2c(N3C[C@H](CN4CCN(c5ncc(N6C[C@@H](N)[C@H](OC)C6)cc5C)CC4)O[C@H](C)C3)ccc(C#N)c2n1` [Example 142, 5-[(2S,6R)-2-[[4-[5-[(3R,4R)-3-amino-4-methoxy-pyrrolidin-1-yl]-3-methyl-2-pyridyl]piperazin-1-yl]methyl]-6-methyl-morpholin-4-yl]-2-deuterio-quinoline-8-carbonitrile], 17 nM.
The value for `[2H]c1ccc2c(N3C[C@H](CN4CCN(c5nc(OC)cc(N6CC(C)(N)C6)n5)CC4)O[C@H](C)C3)ccc(C#N)c2n1` [Example 131, 5-[(2S,6R)-2-[[4-[4-(3-amino-3-methyl-azetidin-1-yl)-6-methoxy-pyrimidin-2-yl]piperazin-1-yl]methyl]-6-methyl-morpholin-4-yl]-2-deuterio-quinoline-8-carbonitrile] was 4 nM.
On to `C[C@@H]1CN(c2ccc(C#N)c3nccnc23)C[C@H](CN2CCN(c3nccc(N4CC(N)C4)n3)CC2)O1` [Example 118, 8-[(2S,6R)-2-[[4-[4-(3-aminoazetidin-1-yl)pyrimidin-2-yl]piperazin-1-yl]methyl]-6-methyl-morpholin-4-yl]quinoxaline-5-carbonitrile], for which the IC50 is 1 nM.

The values are drawn from patent US20210395239A1 (Hoffmann-La Roche Inc., priority 2018, published 2021).
